Test results reported in patent US12390472B2 (SUZHOU SINOVENT PHARMACEUTICALS CO., LTD., priority 2018, dated 2025).

Key:
EZH2 enzyme complex = EZH2 enzyme complex (Homo sapiens (Human), UniProt Q15910); assay: Test on EZH2 inhibitory activity (TR-FRET); format: biochemical; conditions: EZH2 enzyme complex 25 ng/uL, histone H3 peptide 4 uM, SAM 2 uM, 300 min; read-out: IC50 of EZH2 inhibition
[1] = In vivo pharmacokinetic properties in mice; design: species or system mouse; conditions: male ICR mice; for F: intragastric 250 mg/kg vs intravenous 5 mg/kg; for CL / AUC(0-inf) / Cmax / Tmax / half-life: single intravenous 5 mg/kg and intragastric 250 mg/kg study; for AUC(0-inf) / Cmax / Tmax / half-life: mouse, plasma; for AUC(0-inf) / Cmax / Tmax: oral; for Cmax: read-out: Cmax; for Tmax: read-out: Tmax
Description: Male ICR mice were divided into different groups with 3 mice in each group, and single intravenous injection and single intragastric administration were conducted respectively. The compounds were formulated with 10% DMSO/90% (20% Captisol) to reach an appropriate concentration and then administered intravenously at 5 mg/kg. The compounds were formulated with 0.5% CMC-Na/0.1% Tween 80 (pH=3-4) to reach an appropriate concentration and then administered intragastrically at 250 mg/kg. Blood was taken at 5 min, 15 min, 30 min, 1 h, 2 h, 4 h, 6 h, 8 h and 24 h after administration, and then subjected to EDTA-K2 anticoagulation. The concentration of the compound in the plasma was quantitatively detected by an LC-MS/MS method.

Sequence of EZH2 enzyme complex (Q15910 whole entry): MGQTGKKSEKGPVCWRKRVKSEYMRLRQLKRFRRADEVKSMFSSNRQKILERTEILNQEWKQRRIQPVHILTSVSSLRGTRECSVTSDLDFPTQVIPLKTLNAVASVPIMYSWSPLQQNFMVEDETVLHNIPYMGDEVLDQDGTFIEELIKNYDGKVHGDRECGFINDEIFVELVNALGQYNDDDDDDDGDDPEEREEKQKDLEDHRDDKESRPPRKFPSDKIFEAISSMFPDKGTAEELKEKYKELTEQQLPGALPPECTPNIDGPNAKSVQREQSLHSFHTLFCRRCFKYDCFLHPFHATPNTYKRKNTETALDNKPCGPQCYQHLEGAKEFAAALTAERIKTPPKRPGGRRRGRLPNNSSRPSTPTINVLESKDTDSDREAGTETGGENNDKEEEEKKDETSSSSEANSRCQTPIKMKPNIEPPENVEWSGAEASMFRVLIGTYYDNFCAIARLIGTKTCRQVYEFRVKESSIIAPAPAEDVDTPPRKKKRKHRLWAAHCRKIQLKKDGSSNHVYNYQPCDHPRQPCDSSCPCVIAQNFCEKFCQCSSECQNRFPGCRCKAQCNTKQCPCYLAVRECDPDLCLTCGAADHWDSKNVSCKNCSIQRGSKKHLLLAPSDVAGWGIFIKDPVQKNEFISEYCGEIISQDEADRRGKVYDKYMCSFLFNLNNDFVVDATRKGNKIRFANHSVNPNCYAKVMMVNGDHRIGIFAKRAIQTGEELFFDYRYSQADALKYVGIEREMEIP
Sequence of EZH2 enzyme complex (O75530 whole entry partner): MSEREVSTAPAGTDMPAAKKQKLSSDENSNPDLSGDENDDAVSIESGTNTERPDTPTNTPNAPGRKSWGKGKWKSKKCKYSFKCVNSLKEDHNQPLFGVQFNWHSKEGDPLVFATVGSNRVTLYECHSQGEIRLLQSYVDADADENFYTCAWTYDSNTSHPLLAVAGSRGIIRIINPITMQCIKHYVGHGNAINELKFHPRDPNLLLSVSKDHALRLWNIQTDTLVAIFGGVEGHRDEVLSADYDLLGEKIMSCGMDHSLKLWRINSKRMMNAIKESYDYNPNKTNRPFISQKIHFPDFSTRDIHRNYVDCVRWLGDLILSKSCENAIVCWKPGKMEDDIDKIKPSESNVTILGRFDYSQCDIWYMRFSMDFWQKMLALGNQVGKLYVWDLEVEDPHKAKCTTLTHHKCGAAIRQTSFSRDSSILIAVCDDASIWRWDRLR
Sequence of EZH2 enzyme complex (Q15022 whole entry partner): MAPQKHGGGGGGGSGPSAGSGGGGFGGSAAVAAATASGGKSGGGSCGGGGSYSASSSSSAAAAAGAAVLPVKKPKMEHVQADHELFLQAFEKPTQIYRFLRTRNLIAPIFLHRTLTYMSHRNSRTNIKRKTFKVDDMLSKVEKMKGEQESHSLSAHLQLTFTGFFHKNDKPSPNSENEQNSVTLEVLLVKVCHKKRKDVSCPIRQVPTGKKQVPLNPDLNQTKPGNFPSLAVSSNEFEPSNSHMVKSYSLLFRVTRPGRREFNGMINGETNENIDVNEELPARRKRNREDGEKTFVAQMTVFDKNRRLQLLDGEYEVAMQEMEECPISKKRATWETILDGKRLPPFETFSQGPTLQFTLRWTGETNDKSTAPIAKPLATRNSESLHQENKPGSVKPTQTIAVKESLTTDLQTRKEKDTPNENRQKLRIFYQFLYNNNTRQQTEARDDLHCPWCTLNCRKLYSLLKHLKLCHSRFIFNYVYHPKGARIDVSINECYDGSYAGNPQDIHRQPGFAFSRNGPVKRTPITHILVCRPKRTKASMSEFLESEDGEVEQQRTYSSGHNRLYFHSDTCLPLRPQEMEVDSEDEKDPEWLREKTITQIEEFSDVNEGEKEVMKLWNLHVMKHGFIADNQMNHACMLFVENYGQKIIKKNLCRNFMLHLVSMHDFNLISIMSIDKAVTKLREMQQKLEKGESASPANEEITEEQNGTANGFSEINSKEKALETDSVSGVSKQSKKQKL

| Compound | IC50 (EZH2 enzyme complex) [nM] | also measured |
| --- | --- | --- |
| Cc1cc(C)c(CNC(=O)c2cc(OC3CCC3)cc(OC3CCOCC3)c2C)c(=O)[nH]1 [Example 5, 5-cyclobutoxy-N-((4,6-dimethyl-2-oxo-1,2-dihydropyridin-3-yl)methyl)-2-methyl-3-((tetrahydro-2H-pyran-4-yl)oxy)benzamide] | 100 to 1000 |  |
| CCN(c1cc(O[C@H]2C[C@H](CN3CCOCC3)C2)cc(C(=O)NCc2c(C)cc(C)[nH]c2=O)c1C)[C@H]1CC[C@H](N(C)CCOC)CC1 [Example 32, N-((4,6-dimethyl-2-oxo-1,2-dihydropyridin-3-yl)methyl)-3-(ethyl(trans-4-((2-methoxyethyl)(methyl)amino)cyclohexyl)amino)-2-methyl-5-(trans-3-(morpholinylmethyl)cyclobutoxy)benzamide] | 10 to 100 |  |
| CCN(c1cc(O[C@H]2C[C@@H](N3CCOCC3)C2)cc(C(=O)NCc2c(C)cc(C)[nH]c2=O)c1Cl)C1CCOCC1 [Example 40, 2-chloro-N-((4,6-dimethyl-2-oxo-1,2-dihydropyridin-3-yl)methyl)-3-(ethyl(tetrahydro-2H-pyran-4-yl)amino)-5-(cis-3-morpholinylcyclobutoxy)benzamide] | 10 to 100 |  |
| CCN(c1cc(O[C@H]2C[C@H](N3CCOCC3)C2)cc(C(=O)NCc2c(C)cc(C)[nH]c2=O)c1Cl)C1CCOCC1 [Example 41, 2-chloro-N-((4,6-dimethyl-2-oxo-1,2-dihydropyridin-3-yl)methyl)-3-(ethyl(tetrahydro-2H-pyran-4-yl)amino)-5-(trans-3-morpholinylcyclobutoxy)benzamide] | 10 to 100 |  |
| CCN(c1cc(O[C@H]2C[C@@H](N3CCNCC3)C2)cc(C(=O)NCc2c(C)cc(C)[nH]c2=O)c1Cl)C1CCOCC1 [Example 42, 2-chloro-N-((4,6-dimethyl-2-oxo-1,2-dihydropyridin-3-yl)methyl)-3-(ethyl(tetrahydro-2H-pyran-4-yl)amino)-5-(cis-3-(piperazin-1-yl)cyclobutoxy)benzamide] | 10 to 100 |  |
| CCN(c1cc(O[C@H]2C[C@H](N3CCNCC3)C2)cc(C(=O)NCc2c(C)cc(C)[nH]c2=O)c1Cl)C1CCOCC1 [Example 43, 2-chloro-N-((4,6-dimethyl-2-oxo-1,2-dihydropyridin-3-yl)methyl)-3-(ethyl(tetrahydro-2H-pyran-4-yl)amino)-5-(trans-3-(piperazin-1-yl)cyclobutoxy)benzamide] | 10 to 100 |  |
| CCN(c1cc(O[C@H]2C[C@H](N3C[C@@H](C)O[C@@H](C)C3)C2)cc(C(=O)NCc2c(C)cc(C)[nH]c2=O)c1C)C1CCOCC1 [Example 44, N-((4,6-dimethyl-2-oxo-1,2-dihydropyridin-3-yl)methyl)-5-(trans-3-(cis-2,6-dimethylmorpholinyl)cyclobutoxy)-3-(ethyl(tetrahydro-2H-pyran-4-yl)amino)-2-methylbenzamide] | 10 to 100 |  |
| CCN(c1cc(O[C@H]2C[C@H](N3C[C@@H](C)O[C@@H](C)C3)C2)cc(C(=O)NCc2c(C)cc(C)[nH]c2=O)c1C)C1CCN(CC(F)(F)F)CC1 [Example 50, N-((4,6-dimethyl-2-oxo-1,2-dihydropyridin-3-yl)methyl)-5-(trans-3-(cis-2,6-dimethylmorpholinyl)cyclobutoxy)-3-(ethyl (1-(2,2,2-trifluoroethyl)piperidin-4-yl)amino)-2-methylbenzamide] | 10 to 100 |  |
| CCN(c1cc(O[C@H]2C[C@H](N3CC4CC(C3)O4)C2)cc(C(=O)NCc2c(C)cc(C)[nH]c2=O)c1C)C1CCOCC1 [Example 54, 5-(trans-3-(6-oxa-3-azabicyclo[3.1.1]heptan-3-yl)cyclobutoxy)-N-((4,6-dimethyl-2-oxo-1,2-dihydropyridin-3-yl)methyl)-3-(ethyl(tetrahydro-2H-pyran-4-yl)amino)-2-methylbenzamide] | 10 to 100 |  |
| CCN(c1cc(O[C@H]2C[C@H](CN3CCOCC3)C2)cc(C(=O)NCc2c(C)cc(C)[nH]c2=O)c1F)C1CCOCC1 [Example 61, N-((4,6-dimethyl-2-oxo-1,2-dihydropyridin-3-yl)methyl)-3-(ethyl(tetrahydro-2H-pyran-4-yl)amino)-2-fluoro-5-(trans-3-(morpholinomethyl)cyclobutoxy)benzamide] | > 1000 |  |
| CCN(c1cc(O[C@H]2C[C@H](N3CCOCC3)C2)cc(C(=O)NCc2c(C)cc(C)[nH]c2=O)c1C)C1CCOC1 (stereo partly drawn) [Example 64, N-((4,6-dimethyl-2-oxo-1,2-dihydropyridin-3-yl)methyl)-3-(ethyl(tetrahydrofuran-3-yl)amino)-2-methyl-5-(trans-3-morpholin-4-ylcyclobutoxy)benzamide] | 10 to 100 |  |
| CCN(c1cc(O[C@H]2C[C@H](N3CCCCC3)C2)cc(C(=O)NCc2c(C)cc(C)[nH]c2=O)c1Cl)C1CCOCC1 [Example 66, 2-chloro-N-((4,6-dimethyl-2-oxo-1,2-dihydropyridin-3-yl)methyl)-3-(ethyl(tetrahydro-2H-pyran-4-yl)amino)-5-(trans-3-(piperidin-1-yl)cyclobutoxy)benzamide] |  | F [1]: 38.3%; CL [1]: 53.5 ± 13.44 mL/min/lg; AUC(0-inf) [1]: 31200 ng·h/mL; Cmax [1]: 16700 ± 4970 ng/mL; Tmax [1]: 0.42 ± 0.14 h; half-life [1]: 5.05 ± 0.75 h |
| CCN(c1cc(C2CC2CN2CCN(C)CC2)cc(C(=O)NCc2c(C)cc(C)[nH]c2=O)c1C)[C@H]1CC[C@H](N(C)CCOC)CC1 (stereo partly drawn) [Example 81, N-((4,6-dimethyl-2-oxo-1,2-dihydropyridin-3-yl)methyl)-3-(ethyl(trans-4-((2-methoxyethyl)(methyl)amino)cyclohexyl)amino)-2-methyl-5-(2-((4-methylpiperazin-1-yl)methyl)cyclopropyl)benzamide] | 10 to 100 |  |
| CCN(c1cc(C2CC2CN2CCOCC2)cc(C(=O)NCc2c(C)cc(C)[nH]c2=O)c1Cl)C1CCOCC1 (stereo not drawn) [Example 84, 2-chloro-N-((4,6-dimethyl-2-oxo-1,2-dihydropyridin-3-yl)methyl)-3-(ethyl(tetrahydro-2H-pyran-4-yl)amino)-5-(2-(morpholinylmethyl)cyclopropyl)benzamide] | 100 to 1000 |  |
| CCN(c1cc(O[C@H]2C[C@H](N3CCOCC3)C2)cc(C(=O)NCc2c(C)cc(C)[nH]c2=O)c1C)C1CC2CCC(C1)O2 (stereo partly drawn) [Example 86] |  | F [1]: 29.5%; CL [1]: 65.5 ± 1.60 mL/min/lg; AUC(0-inf) [1]: 18800 ± 4560 ng·h/mL; Cmax [1]: 21000 ± 8040 ng/mL; Tmax [1]: 0.25 h; half-life [1]: 4.19 ± 3.07 h |
| CCN(c1cc(O[C@H]2C[C@H](N3CCC(C)CC3)C2)cc(C(=O)NCc2c(OC)cc(C)[nH]c2=O)c1Cl)C1CCOCC1 [Example 89] | 10 to 100 |  |
| CCN(c1cc(O[C@H]2C[C@H](N3CCC(C)CC3)C2)cc(C(=O)NCc2c(C)cc(C(F)(F)F)[nH]c2=O)c1Cl)C1CCOCC1 [Example 90] | > 1000 |  |
